The results in this text go back to patent US8889667B2 (Agios Pharmaceuticals, Inc, priority 2010, dated 2014).

For this test, the target named is PKM2 (Homo sapiens, UniProt P14618). Nature of the test: PKM2 Assay (activation, LDH-coupled, absorbance at 340 nm). Type of test: biochemical. The procedure, abridged: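 Human PKM2 (50 ng/well) was preincubated with compound and coupling mix for 30 min at 4 °C without ADP. Reactions were then started with ADP (0.7 mM) alongside PEP 0.15 mM, NADH 180 μM and LDH, in Tris pH 7.5/KCl/MgCl2/DTT/BSA buffer. A340 was followed at 25 °C and activation reported as AC50.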
PKM2, sequence (P14618 whole entry): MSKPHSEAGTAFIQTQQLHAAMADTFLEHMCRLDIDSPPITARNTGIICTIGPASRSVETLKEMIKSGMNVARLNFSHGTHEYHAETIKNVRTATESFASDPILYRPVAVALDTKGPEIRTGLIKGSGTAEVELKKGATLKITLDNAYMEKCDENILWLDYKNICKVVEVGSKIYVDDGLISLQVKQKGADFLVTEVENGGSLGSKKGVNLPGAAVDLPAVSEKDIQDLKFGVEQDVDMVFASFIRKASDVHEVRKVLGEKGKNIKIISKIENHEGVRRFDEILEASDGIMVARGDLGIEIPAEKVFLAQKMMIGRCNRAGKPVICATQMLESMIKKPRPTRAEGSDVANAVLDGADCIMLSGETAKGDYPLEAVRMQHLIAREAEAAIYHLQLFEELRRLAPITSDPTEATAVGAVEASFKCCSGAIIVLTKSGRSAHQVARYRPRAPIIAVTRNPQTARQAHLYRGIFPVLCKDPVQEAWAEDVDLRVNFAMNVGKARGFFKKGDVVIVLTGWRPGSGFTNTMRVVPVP

Broadly, the AC50 is the midpoint of the concentration-response curve, whichever way the signal moves. Read a high AC50 as weaker potency. The compound `O=C(c1ccc(NS(=O)(=O)c2cccc3cccnc23)c(OC(F)(F)F)c1)N1CCN(Cc2c[nH]cn2)CC1` [Compound 381, N-(4-(4-((1H-imidazol-4-yl)methyl)piperazine-1-carbonyl)-2-(trifluoromethoxy)phenyl)quinoline-8-sulfonamide] registered an AC50 (Table 5) of 100 to 500 nM.

Take `C[C@@H]1CN(C(=O)c2ccccn2)CCN1C(=O)c1ccc(NS(=O)(=O)c2cccc3cccnc23)cc1` [Compound 103]: the AC50 (Table 4) lay within 100 to 500 nM.

Compound `O=C(c1ccc(NS(=O)(=O)c2cccc3cccnc23)c(OC(F)(F)F)c1)N1CCN(Cc2ccc(C(F)(F)F)cc2)CC1` [Compound 334, N-(2-(trifluoromethoxy)-4-(4-(4-(trifluoromethyl)benzyl)piperazine-1-carbonyl)phenyl)quinoline-8-sulfonamide] returned an AC50 (Table 5) of 100 to 500 nM.

`CC1CN(CC2CCCCC2)CC(C)N1C(=O)c1ccc(NS(=O)(=O)c2cccc3cccnc23)cc1` (centres unmarked) [Compound 198, N-(4-(4-(cyclohexylmethyl)-2,6-dimethylpiperazine-1-carbonyl)phenyl)quinoline-8-sulfonamide] showed a half-maximal activity concentration (AC50) (Table 4) of 100 to 500 nM.

Turning to `COc1cc(C(=O)N2CCN(C(=O)c3cccc(F)c3F)CC2)ccc1NS(=O)(=O)c1cccc2cccnc12` [Compound 318, N-(4-(4-(2,3-difluorobenzoyl)piperazine-1-carbonyl)-2-methoxyphenyl)quinoline-8-sulfonamide], the AC50 (Table 5) was 100 to 500 nM.

Where the note is “Table 4”, `C[C@@H]1CN(Cc2ccc(F)cc2)CCN1C(=O)c1ccc(NS(=O)(=O)c2cccc3cccnc23)cc1` [Compound 131, (R)—N-(4-(4-(4-fluorobenzyl)-2-methylpiperazine-1-carbonyl)phenyl)quinoline-8-sulfonamide] registered an AC50 of under 100 nM.

For the setting “Table 4”, `CC[C@H]1CN(C(C)c2cc(F)cc(F)c2)CCN1C(=O)c1ccc(NS(=O)(=O)c2cccc3cccnc23)cc1` (stereo partly drawn) [Compound 161, N-(4-((2S)-4-(1-(3,5-difluorophenyl)ethyl)-2-ethylpiperazine-1-carbonyl)phenyl)quinoline-8-sulfonamide] yielded a half-maximal activity concentration (AC50) of under 100 nM.

In the case of `C[C@H]1CN(CC2CC2)CCN1C(=O)c1ccc(NS(=O)(=O)c2cccc3cccnc23)cc1Cl` [Compound 178], the AC50 (Table 4) was 100 to 500 nM.

Take `CC1CN(Cc2c(F)ccc(F)c2F)CC(C)N1C(=O)c1ccc(NS(=O)(=O)c2cccc3cccnc23)cc1` (centres unmarked) [Compound 199, N-(4-(2,6-dimethyl-4-(2,3,6-trifluorobenzyl)piperazine-1-carbonyl)phenyl)quinoline-8-sulfonamide]: the AC50 (Table 4) was under 100 nM.

The compound `C[C@H]1CN(CC2CCCCC2)CCN1C(=O)c1ccc(NS(=O)(=O)c2cccc3cccnc23)cc1` [Compound 153, (S)—N-(4-(4-(cyclohexylmethyl)-2-methylpiperazine-1-carbonyl)phenyl)quinoline-8-sulfonamide] came in with an AC50 (Table 4) of 100 to 500 nM.

With `CC(c1cc(F)cc(F)c1)N1CCN(C(=O)c2ccc(NS(=O)(=O)c3cccc4cccnc34)cc2)[C@@H](C)C1` (some centres unmarked) [Compound 170], the AC50 (Table 4) is 100 to 500 nM.

The compound `O=C(c1ccc(NS(=O)(=O)c2cccc3cccnc23)c(OC(F)(F)F)c1)N1CCN(Cc2cncc(F)c2)CC1` [Compound 300] yielded an AC50 (Table 5) of 100 to 500 nM.

Consider `CC(c1c(F)cccc1F)N1CCN(C(=O)c2ccc(NS(=O)(=O)c3cccc4cccnc34)cc2)CC1` (centres unmarked) [Compound 357, N-(4-(4-(1-(2,6-difluorophenyl)ethyl)piperazine-1-carbonyl)phenyl)quinoline-8-sulfonamide], for which, for the setting “Table 5”, the half-maximal activity concentration (AC50) was under 100 nM.

With `C[C@H]1CN(Cc2ccc(F)cc2)CCN1C(=O)c1ccc(NS(=O)(=O)c2cccc3cccnc23)cc1` [Compound 152, (S)—N-(4-(4-(4-fluorobenzyl)-2-methylpiperazine-1-carbonyl)phenyl)quinoline-8-sulfonamide], the AC50 (Table 4) was under 100 nM.

As to `O=C(c1ccc(NS(=O)(=O)c2cccc3cccnc23)c(OC(F)(F)F)c1)N1CCN(CCc2ccccc2)CC1` [Compound 303, N-(4-(4-phenethylpiperazine-1-carbonyl)-2-(trifluoromethoxy)phenyl)quinoline-8-sulfonamide], the AC50 (Table 5) lay within 100 to 500 nM.

As for `C[C@@H]1CN(C(=O)OCC2CCCO2)CCN1C(=O)c1ccc(NS(=O)(=O)c2cccc3cccnc23)cc1` (stereo partly drawn) [Compound 128, (3R)-(Tetrahydrofuran-2-yl)methyl3-methyl-4-(4-(quinoline-8-sulfonamido)benzoyl)piperazine-1-carboxylate], the AC50 (Table 4) was under 100 nM.

`COc1cc(C(=O)N2CCN(C(=O)c3csnn3)CC2)ccc1NS(=O)(=O)c1cccc2cccnc12` [Compound 321, N-(4-(4-(1,2,3-thiadiazole-4-carbonyl)piperazine-1-carbonyl)-2-methoxyphenyl)quinoline-8-sulfonamide] showed an AC50 (Table 5) of 100 to 500 nM.

On to `CC(c1ccc(Cl)c(F)c1)N1CCN(C(=O)c2ccc(NS(=O)(=O)c3cccc4cccnc34)cc2)[C@@H](C)C1` (some centres unmarked) [Compound 182], for which the AC50 (Table 4) was in the range of 100 to 500 nM.

Under “Table 5”, `CC(C)(c1ccccc1)N1CCN(C(=O)c2ccc(NS(=O)(=O)c3cccc4cccnc34)c(OC(F)(F)F)c2)CC1` [Compound 340, N-(4-(4-(2-phenylpropan-2-yl)piperazine-1-carbonyl)-2-(trifluoromethoxy)phenyl)quinoline-8-sulfonamide] came in with an AC50 of 100 to 500 nM.

In turn, `CC(c1ccc(F)cc1Cl)N1CCN(C(=O)c2ccc(NS(=O)(=O)c3cccc4cccnc34)cc2)[C@H](C)C1` (stereo partly drawn) [Compound 191, N-(4-((2R)-4-(1-(2-chloro-4-fluorophenyl)ethyl)-2-methylpiperazine-1-carbonyl)phenyl)quinoline-8-sulfonamide] had a concentration at half-maximal activity (AC50) (Table 4) of 100 to 500 nM.

On to `CC(c1ccc(F)cc1)N1CCN(C(=O)c2ccc(NS(=O)(=O)c3cccc4cccnc34)cc2)[C@H](C)C1` (stereo partly drawn) [Compound 133, N-(4-((2R)-4-(1-(4-fluorophenyl)ethyl)-2-methylpiperazine-1-carbonyl)phenyl)quinoline-8-sulfonamide], for which the AC50 (Table 4) is under 100 nM.

With `O=C(c1ccc(NS(=O)(=O)c2cccc3cccnc23)cc1F)N1CCN(Cc2cc(F)cc(F)c2)CC1` [Compound 421, N-(4-(4-(3,5-difluorobenzyl)piperazine-1-carbonyl)-3-fluorophenyl)quinoline-8-sulfonamide], the AC50 (Table 5) was under 100 nM.

For `CC(c1c(F)cc(F)cc1F)N1CCN(C(=O)c2ccc(NS(=O)(=O)c3cccc4cccnc34)cc2)[C@H](C)C1` (some centres unmarked) [Compound 167], the AC50 (Table 4) was under 100 nM.

Under “Table 5”, `COc1cccnc1CN1CCN(C(=O)c2ccc(NS(=O)(=O)c3cccc4cccnc34)c(OC(F)(F)F)c2)CC1` [Compound 373, N-(4-(4-((3-methoxypyridin-2-yl)methyl)piperazine-1-carbonyl)-2-(trifluoromethoxy)phenyl)quinoline-8-sulfonamide] displayed an AC50 of 100 to 500 nM.

With `O=C(c1ccc(NS(=O)(=O)c2cccc3cccnc23)cc1F)N1CCN(CC2CC2)CC1` [Compound 424, N-(4-(4-(cyclopropylmethyl)piperazine-1-carbonyl)-3-fluorophenyl)quinoline-8-sulfonamide], the AC50 (Table 5) was in the range of 100 to 500 nM.

On to `O=C(c1ccc(NS(=O)(=O)c2cccc3cccnc23)cc1Cl)N1CCN(CC2CCCO2)CC1` (centres unmarked) [Compound 441, N-(3-chloro-4-(4-((tetrahydrofuran-2-yl)methyl)piperazine-1-carbonyl)phenyl)quinoline-8-sulfonamide], for which the half-maximal activity concentration (AC50) (Table 5) was in the range of 1000 to 20000 nM.

Under “Table 5”, `O=C(c1ccc(NS(=O)(=O)c2cccc3cccnc23)cc1Cl)N1CCN(CC2CCOCC2)CC1` [Compound 440, N-(3-chloro-4-(4-((tetrahydro-2H-pyran-4-yl)methyl)piperazine-1-carbonyl)phenyl)quinoline-8-sulfonamide] displayed an AC50 of 100 to 500 nM.

For `C[C@@H](c1ccccc1)N1CCN(C(=O)c2ccc(NS(=O)(=O)c3cccc4cccnc34)cc2)CC1` [Compound 387, (S)—N-(4-(4-(1-phenylethyl)piperazine-1-carbonyl)phenyl)quinoline-8-sulfonamide], the AC50 (Table 5) was under 100 nM.

With `O=C(c1ccc(NS(=O)(=O)c2cccc3cccnc23)c(OC(F)(F)F)c1)N1CCN(Cc2ccc(Cl)cc2Cl)CC1` [Compound 374, N-(4-(4-(2,4-dichlorobenzyl)piperazine-1-carbonyl)-2-(trifluoromethoxy)phenyl)quinoline-8-sulfonamide], the AC50 (Table 5) fell in the range of 500 to 1000 nM.

As to `C[C@H]1CN(CC2CCC2)CCN1C(=O)c1ccc(NS(=O)(=O)c2cccc3cccnc23)cc1` [Compound 207, (S)—N-(4-(4-(cyclobutylmethyl)-2-methylpiperazine-1-carbonyl)phenyl)quinoline-8-sulfonamide], the AC50 (Table 4) was in the range of 100 to 500 nM.

`O=C(c1ccc(NS(=O)(=O)c2cccc3cccnc23)cc1)N1CCN(C(=O)c2nccs2)CC1` [Compound 371, N-(4-(4-(thiazole-2-carbonyl)piperazine-1-carbonyl)phenyl)quinoline-8-sulfonamide] registered an AC50 (Table 5) of under 100 nM.

The compound `CC1CN(Cc2cc(F)c(F)cc2F)CC(C)N1C(=O)c1ccc(NS(=O)(=O)c2cccc3cccnc23)cc1` (centres unmarked) [Compound 203, N-(4-(2,6-dimethyl-4-(2,4,5-trifluorobenzyl)piperazine-1-carbonyl)phenyl)quinoline-8-sulfonamide] yielded an AC50 (Table 4) of under 100 nM.

As for `O=C(c1ccc(NS(=O)(=O)c2cccc3cccnc23)cc1F)N1CCN(CC2CCCCO2)CC1` (centres unmarked) [Compound 435, N-(3-fluoro-4-(4-((tetrahydro-2H-pyran-2-yl)methyl)piperazine-1-carbonyl)phenyl)quinoline-8-sulfonamide], the AC50 (Table 5) lay in the range of 100 to 500 nM.

Where the note is “Table 5”, `O=C(c1ccc(NS(=O)(=O)c2cccc3cccnc23)c(OC(F)(F)F)c1)N1CCN(Cc2cccc(F)c2)CC1` [Compound 377, N-(4-(4-(3-fluorobenzyl)piperazine-1-carbonyl)-2-(trifluoromethoxy)phenyl)quinoline-8-sulfonamide] had an AC50 of 100 to 500 nM.

`O=C(c1ccc(NS(=O)(=O)c2cccc3cccnc23)cc1F)N1CCN(Cc2ccc(F)cc2)CC1` [Compound 420, N-(3-fluoro-4-(4-(4-fluorobenzyl)piperazine-1-carbonyl)phenyl)quinoline-8-sulfonamide]: for the setting “Table 5”, the AC50 was under 100 nM.
